In US20220105234A1, “ADHESIVE FOR OSSEOINTEGRATED PERCUTANEOUS DEVICES” (Regents of the University of Minnesota, priority 2020, published 2022):
Where no end group is shown, it is not given here. [ ]: non-standard residue; d: D form.

Tested on: S. aureus
Test: LIVE/DEAD assay of bacterial membrane integrity
Type: cell-based, Staphylococcus aureus
Conditions: SYTO 9 / propidium iodide stain
Description: Assessing the antibacterial activity of GL13K-loaded MSNs against Staphylococcus aureus (USA300, MRSA strain). Overnight culture of S. aureus, USA300 prepared in tryptic soy broth (TSB, DF0370-17-3, Fisher Scientific) were used for assessing the antibacterial activity of AMP-loaded MSNs. USA300 is one of the primary causatives of implant associated infection and implant failure. The optical density of the overnight culture was adjusted to 0.05 and treated with different concentrations of AMP-loaded MSN and AMP alone and MSN (without AMP) and PBS (vehicle control) was used as positive and negative controls. The bacteria was cultured for 24 h under different conditions and metabolic activity tested using BacTiter-Glo™ microbial cell viability assay. The assay was performed using manufacturer's instruction and metabolic activity was measured by luminescence which was measured using microplate reader (Synergy HT, Biotek). […] FIGS. 7A-7C show metabolic activity of USA300 cultured in presence of AMP-loaded MSNs, MSN alone and AMP added directly to the bacterial suspension. Values on x-axis correspond to the loaded AMP concentration.
Overnight culture of S. aureus was treated the same was using method discussed for FIGS. 7A-7C. A LIVE/DEAD assay was performed to visualize cell colonization of surfaces and membrane integrity of all experimental groups. […]

Substance: D-GL13K (G[dK][dI][dI][dK][dL][dK][dA][dS][dL][dK][dL][dL]) [AMP]
- membrane-compromised bacteria (antibacterial capability): significant membrane-compromised bacteria
